The values below come from ChEMBL document CHEMBL1127134, “Synthesis and antibacterial activity of (1R,5R,6R)-2-tert-butyl-6-(1-hydroxyethyl)oxapenem-3-carboxylic acid” (1993).

≈ marks a conversion by molar mass, not a printed value.

Holding throughout (format): functional
Assay [1] has as its system Parabacteroides distasonis. In words: Minimum inhibitory concentration required for the antibacterial activity against Bacillus distasonis Heidelberg.
Assay [2] deals with Bacteroides fragilis. In words: Minimum inhibitory concentration required for the antibacterial activity against Bacillus fragilis GA I - 0558 Japan.
Assay [3] has as its system Fusobacterium necrophorum. In words: Minimum inhibitory concentration required for the antibacterial activity against Sphaerophorus necrophorus Kr.
The subject of assay [4] is Thomasclavelia ramosa. In words: Minimum inhibitory concentration required for the antibacterial activity against Clostridium ramosum DSM 1402.
Assay [5] concerns Parabacteroides distasonis. In words: Minimum inhibitory concentration required for the antibacterial activity against Bacillus distasonis Kr.
Assay [6] deals with Bacteroides fragilis. In words: Minimum inhibitory concentration required for the antibacterial activity against Bacillus fragilis DSM 2151.
For assay [7], the system named is Phocaeicola vulgatus. Description: Minimum inhibitory concentration required for the antibacterial activity against Bacillus valgatus Kr III.
The subject of assay [8] is Clostridium sporogenes. Description: Minimum inhibitory concentration required for the antibacterial activity against Clostridium sporogenes.
For assay [9], the system named is Bacteroides fragilis. Description: Minimum inhibitory concentration required for the antibacterial activity against Bacillus fragilis L 1168 Italien.
Assay [10] relates to Clostridium butyricum. In words: Minimum inhibitory concentration required for the antibacterial activity against Clostridium butyricum.
Assay [11] deals with Clostridium perfringens. In words: Minimum inhibitory concentration required for the antibacterial activity against Clostridium perfringens DSM 756.
Assay [12] has as its system Peptostreptococcus anaerobius. Description: Minimum inhibitory concentration required for the antibacterial activity against Peptostrept. anaer. DSM 20357.
The test system of assay [13] is Bacteroides fragilis. In words: Minimum inhibitory concentration required for the antibacterial activity against Bacillus fragilis 2034/35 Kr 43.
Assay [14] concerns Bacteroides thetaiotaomicron. Description: Minimum inhibitory concentration required for the antibacterial activity against Bacillus thetaiotaomicron DSM 2079.
Assay [15] deals with Bacteroides thetaiotaomicron. Description: Minimum inhibitory concentration required for the antibacterial activity against Bacillus thetaiotaomicron 235 Munchen.
Assay [16] deals with Bacteroides fragilis. Description: Minimum inhibitory concentration required for the antibacterial activity against Bacillus fragilis 4661 Kr.
The test system of assay [17] is Prevotella melaninogenica. In words: Minimum inhibitory concentration required for the antibacterial activity against Bacillus melaninogenicus Kr.
For assay [18], the system named is Fusobacterium nucleatum. In words: Minimum inhibitory concentration required for the antibacterial activity against Fusobacterium nucleatum DSM 20482.
Assay [19] concerns Peptostreptococcus anaerobius. Description: Minimum inhibitory concentration required for the antibacterial activity against Peptostrept. anaer. Kr II.
Assay [20] relates to Peptostreptococcus anaerobius. Description: Minimum inhibitory concentration required for the antibacterial activity against Peptostrept. anaer. Kr I.
Assay [21] concerns Clostridium perfringens. In words: Minimum inhibitory concentration required for the antibacterial activity against Clostridium perfringens 24071.
The subject of assay [22] is Peptostreptococcus anaerobius. Description: Minimum inhibitory concentration required for the antibacterial activity against Peptostrept. anaer. 222 I/82.
The subject of assay [23] is Clostridium perfringens. Description: Minimum inhibitory concentration required for the antibacterial activity against Clostridium perfringens 1024027.
Assay [24] concerns Bacteroides fragilis. In words: Minimum inhibitory concentration required for the antibacterial activity against Bacillus fragilis 4891/91 Kr.
The subject of assay [25] is Bacteroides fragilis. Description: Minimum inhibitory concentration required for the antibacterial activity against Bacillus fragilis 1560 I/82.
Assay [26] concerns Clostridium septicum. Description: Minimum inhibitory concentration required for the antibacterial activity against Clostridium septicum.
Assay [27] relates to Peptoniphilus asaccharolyticus. In words: Minimum inhibitory concentration required for the antibacterial activity against Peptococcus asacchar. DSM 20463.
For assay [28], the system named is Clostridium perfringens. In words: Minimum inhibitory concentration required for the antibacterial activity against Clostridium perfringens 24072.
Assay [29] relates to Prevotella melaninogenica. In words: Minimum inhibitory concentration required for the antibacterial activity against Bacillus melaninogenicus Heidelberg.
In assay [30] the test system is Bacteroides fragilis. Description: Minimum inhibitory concentration required for the antibacterial activity against Bacillus fragilis Kr 1 TV.
Assay [31] deals with Bacteroides fragilis. In words: Minimum inhibitory concentration required for the antibacterial activity against Bacillus fragilis 06688.
The test system of assay [32] is Bacteroides fragilis. In words: Minimum inhibitory concentration required for the antibacterial activity against Bacillus fragilis ES 25.
Assay [33] has as its system Bacteroides fragilis. Description: Minimum inhibitory concentration required for the antibacterial activity against Bacillus fragilis 010848.
Assay [34] deals with Anaerococcus prevotii. Description: Minimum inhibitory concentration required for the antibacterial activity against Peptococcus prevotii DSM 20548.
Assay [35] has as its system Bacteroides fragilis. Description: Minimum inhibitory concentration required for the antibacterial activity against Bacillus fragilis Kr II.
Assay [36] has as its system Staphylococcus aureus. In words: Minimum inhibitory concentration required for the antibacterial activity against Staphylococcus aureus 25768.
For assay [37], the system named is Staphylococcus aureus. Description: Minimum inhibitory concentration required for the antibacterial activity against Staphylococcus aureus 48N Munchen.
Assay [38] has as its system Staphylococcus aureus. In words: Minimum inhibitory concentration required for the antibacterial activity against Staphylococcus aureus 21b Belgium.
For assay [39], the system named is Staphylococcus aureus. Description: Minimum inhibitory concentration required for the antibacterial activity against Staphylococcus aureus 77 Innsbruck.
In assay [40] the test system is Staphylococcus aureus. Description: Minimum inhibitory concentration required for the antibacterial activity against Staphylococcus aureus 79B Innsbruck.
In assay [41] the test system is Staphylococcus aureus. In words: Minimum inhibitory concentration required for the antibacterial activity against Staphylococcus aureus 4978 Israel.
The test system of assay [42] is Staphylococcus aureus. Description: Minimum inhibitory concentration required for the antibacterial activity against Staphylococcus aureus 41h Belgium.
Assay [43] relates to Staphylococcus aureus. In words: Minimum inhibitory concentration required for the antibacterial activity against Staphylococcus aureus 13N Munchen.
Assay [44] concerns Staphylococcus aureus. In words: Minimum inhibitory concentration required for the antibacterial activity against Staphylococcus aureus 17N Munchen.
Assay [45] concerns Staphylococcus aureus. Description: Minimum inhibitory concentration required for the antibacterial activity against Staphylococcus aureus 25085.
In assay [46] the test system is Staphylococcus aureus. Description: Minimum inhibitory concentration required for the antibacterial activity against Staphylococcus aureus 25463.
The subject of assay [47] is Staphylococcus aureus. Description: Minimum inhibitory concentration required for the antibacterial activity against Staphylococcus aureus 25697.
Assay [48] concerns Staphylococcus aureus. In words: Minimum inhibitory concentration required for the antibacterial activity against Staphylococcus aureus 25464.
The test system of assay [49] is Staphylococcus aureus. In words: Minimum inhibitory concentration required for the antibacterial activity against Staphylococcus aureus 90 Innsbruck.
Assay [50] relates to Staphylococcus aureus. Description: Minimum inhibitory concentration required for the antibacterial activity against Staphylococcus aureus 86 Innsbruck.
For assay [51], the system named is Staphylococcus aureus. In words: Minimum inhibitory concentration required for the antibacterial activity against Staphylococcus aureus 25470.
The test system of assay [52] is Staphylococcus aureus. Description: Minimum inhibitory concentration required for the antibacterial activity against Staphylococcus aureus 1756. As to conditions: Staphylococcus aureus; read-out: MIC.

On to `CO/N=C(\C(=O)N[C@@H]1C(=O)N2C(C(=O)O)=C(COC(C)=O)CS[C@H]12)c1csc(N)n1` [CEFOTAXIME], for which the MIC in assay [1] was determined as 2 µg/mL (≈ 4.39 µM); in assay [2] it was 8 µg/mL (≈ 17.6 µM); in assay [3], 1 µg/mL (≈ 2.2 µM); in [4] it was 2 µg/mL (≈ 4.39 µM); in assay [5], 2 µg/mL (≈ 4.39 µM); in assay [6], 4 µg/mL (≈ 8.78 µM). Moreover, the MIC is 2 µg/mL (≈ 4.39 µM) in assay [7]; 0.5 µg/mL (≈ 1.1 µM) in [8]; 4 µg/mL (≈ 8.78 µM) in assay [9]; 1 µg/mL (≈ 2.2 µM) in assay [10]; at most 0.25 µg/mL in assay [11]; 16 µg/mL (≈ 35.1 µM) in assay [12]. Besides, the MIC is over 128 µg/mL in assay [13]; 128 µg/mL (≈ 281 µM) in assay [14]; 128 µg/mL (≈ 281 µM) in assay [15]; 4 µg/mL (≈ 8.78 µM) in [16]; 2 µg/mL (≈ 4.39 µM) in assay [17]; 0.5 µg/mL (≈ 1.1 µM) in [18]. The MIC in assay [19] is at most 0.25 µg/mL; in [20], 32 µg/mL (≈ 70.3 µM); in assay [21] it was 2 µg/mL (≈ 4.39 µM); in assay [22], 0.5 µg/mL (≈ 1.1 µM); in [23] it was at most 0.25 µg/mL; in assay [24], 4 µg/mL (≈ 8.78 µM). Also, the minimum inhibitory concentration (MIC) in assay [25] was 2 µg/mL (≈ 4.39 µM); in [26] it was 128 µg/mL (≈ 281 µM); in assay [27], at most 0.25 µg/mL; in assay [28], 0.5 µg/mL (≈ 1.1 µM); in assay [29] it was 2 µg/mL (≈ 4.39 µM); in [30], 1 µg/mL (≈ 2.2 µM). In addition, the MIC in assay [31] is 2 µg/mL (≈ 4.39 µM); in [32], 4 µg/mL (≈ 8.78 µM); in assay [33], 16 µg/mL (≈ 35.1 µM); in assay [34] it was 8 µg/mL (≈ 17.6 µM); in assay [35] it was 2 µg/mL (≈ 4.39 µM).

Regarding `CC1(C)S[C@@H]2[C@H](NC(=O)[C@H](N)c3ccccc3)C(=O)N2[C@H]1C(=O)O` [AMPICILLIN], the MIC in [36] was 50 µg/mL (≈ 143 µM); in [37], 50 µg/mL (≈ 143 µM); in assay [38], over 100 µg/mL; in assay [39] it was 50 µg/mL (≈ 143 µM); in [40], 50 µg/mL (≈ 143 µM); in assay [41] it was 1.56 µg/mL (≈ 4.46 µM). For the same compound, the MIC in assay [42] turned out to be 50 µg/mL (≈ 143 µM); in assay [43], 50 µg/mL (≈ 143 µM); in assay [44] it was 25 µg/mL (≈ 71.5 µM); in assay [45], 50 µg/mL (≈ 143 µM); in assay [46] it was 50 µg/mL (≈ 143 µM); in assay [47], 25 µg/mL (≈ 71.5 µM). Also, the MIC in assay [48], in assay [49], in assay [50], in assay [51] and in [52] was 50 µg/mL (≈ 143 µM) in each case.

For the compound `CO[C@@]1(NC(=O)Cc2cccs2)C(=O)N2C(C(=O)O)=C(COC(N)=O)CS[C@@H]21` [CEFOXITIN], the MIC in assay [36] was 12.5 µg/mL (≈ 29.2 µM); in assay [37], 6.25 µg/mL (≈ 14.6 µM); in assay [38], at most 0.78 µg/mL; in assay [39], 25 µg/mL (≈ 58.5 µM); in assay [40], 25 µg/mL (≈ 58.5 µM); in [41], 1.56 µg/mL (≈ 3.65 µM). For the same compound, the MIC is 1.56 µg/mL (≈ 3.65 µM) in [42]; over 100 µg/mL in assay [43]; 12.5 µg/mL (≈ 29.2 µM) in assay [44]; 12.5 µg/mL (≈ 29.2 µM) in assay [45]; 1.56 µg/mL (≈ 3.65 µM) in assay [46]; 12.5 µg/mL (≈ 29.2 µM) in assay [47]. Besides, the MIC in [48] is 50 µg/mL (≈ 117 µM); in assay [49] it was 100 µg/mL (≈ 234 µM); in [50], 12.5 µg/mL (≈ 29.2 µM); in [51], over 100 µg/mL; in [52], 50 µg/mL (≈ 117 µM).

In the case of `O=C(O)c1cn(C2CC2)c2cc(N3CCNCC3)c(F)cc2c1=O` [CIPROFLOXACIN], the minimum inhibitory concentration (MIC) was 100 µg/mL (≈ 302 µM) in assay [36]; 12.5 µg/mL (≈ 37.7 µM) in assay [37]; 50 µg/mL (≈ 151 µM) in assay [38]; over 100 µg/mL in assay [39]; 100 µg/mL (≈ 302 µM) in assay [40]; at most 0.78 µg/mL in [41]. For the same compound, the MIC in assay [42] is 100 µg/mL (≈ 302 µM); in [43], 1.56 µg/mL (≈ 4.71 µM); in [44] it was 12.5 µg/mL (≈ 37.7 µM); in [45], at most 0.78 µg/mL; in assay [46], 1.56 µg/mL (≈ 4.71 µM); in assay [47] it was 12.5 µg/mL (≈ 37.7 µM). The MIC was at most 0.78 µg/mL in assay [48]; 12.5 µg/mL (≈ 37.7 µM) in assay [49]; 100 µg/mL (≈ 302 µM) in [50]; at most 0.78 µg/mL in [51]; at most 0.78 µg/mL in assay [52].
